The values that follow come from US20260191887A1, “METHODS OF TREATING INFLAMMATION” (THERAPEUTIKOS, INC., priority 2022, published 2026).

Data set [1] concerns primary human chondrocytes. In words: WST-1 cell proliferation assay in primary human chondrocytes with IL-1β. To be noted: IL-1β 5 ng/mL, concentrations up to 5 mM, n=6. The format is cell-based. An excerpt: Normal cartilage tissues. Articular cartilages were harvested from the femoral condyles and the tibial plateaus, which were obtained from autopsy services at the hospital of UVA and approved by the Institutional Review Board. All tissue samples were graded according to a modified Mankin scale, and only cartilages without evidence of osteoarthritis were used as a source of chondrocytes. The interval between death and the time the cartilages were harvested from these knee joints in the laboratory were at least 24 h and ranged up to 96 h. Cartilage shavings were harvested at the operation room and placed in tissue culture medium (DMEM, 10% FBS, penicillin, streptomycin), and shipped to the laboratory at 4° C. The tissues were processed in the laboratory within 24 h after harvest.
Chondrocytes were isolated from the cartilage by collagenase digestion and maintained in continuous monolayer cultures in DMEM containing 10% FBS. Cell viability after chondrocyte isolation by collagenase digestion of normal cartilage was >95%, determined by the typan blue stain (Sigma-Aldrich). Experiments were performed with primary or first passage cells. When necessary, trypsin will be used for cell passage.
Human chondrocytes were seeded in a 96-well plate (5×10^4/well) and incubated with culture medium overnight. […]

The test system of another data set is mouse iNOS. In words: Western blot of iNOS expression in LPS-activated RAW264.7 macrophages. Format: cell-based. To be noted: LPS 100 ng/mL; NDX1 0.1 and 1 mM, NDX2 and NAG 0.5 and 5 mM. As for the experimental part:
(§1) Mouse RAW264.7 macrophage cell line (ATCC; Manassas, VA, USA) was maintained in DMEM culture medium containing 10% FBS and 1% antibiotic mix. For cell treatment, the test drugs at different doses were added to the culture 0.5 h prior to addition of 100 ng/mL LPS (Sigma-Aldrich Co., St Louis, MO, USA) and then cells were co-treated with LPS for 24 hours.
(§2) The cellular proteins were prepared from cells growing on a 6-well plate (approximately 500,000/well) using a commercial cell lysis buffer (Thermo Scientific). Then the protein concentration was determined using the Bradford protein assay kit (Bio-Rad, Hercules, CA, USA). The samples containing 100 μg proteins were run on 10% SDS-polyacrylamide gels at a […] and electro-transferred to nitrocellulose membranes (Thermo Scientific) at a constant voltage of 10 V overnight. […] Using the magic wand tool from the tool palette, the area of each band was selected, and the mean histogram were recorded and then charted. […]

In another data set the test system is Cox-2. In words: Western blot of Cox-2 expression in LPS-activated RAW264.7 macrophages. The format is cell-based, mouse. To be noted: LPS 100 ng/mL; NDX1 0.1 and 1 mM, NDX2 and NAG 0.5 and 5 mM. As for the experimental part:
as §1, §2

The next data set concerns IL-6. Nature of the data set: Serum IL-6 ELISA in LPS-induced systemic inflammation in mice. The format is in vivo, mouse. To be noted: LPS 10 mg/kg I.P., compound 300 mg/kg I.V. As for the experimental part: (§3) Male C57BL6/J mice (8 to 10-week-old, 20-25 g) purchased from Charles River were used in this study. Mice were kept in the animal facility of the School of Medicine, University of Virginia (UVa). All experimental procedures were approved by the Ethics Committee on Animal Research of Medical School, UVa and are in accordance with the Guidelines of the National Council for Animal Experimentation Control (CONCEA).
(§4) Moderate endotoxemia by LPS was induced with a single dose (10 mg/Kg, i.p.) of LPS (Escherichia coli 0111:B4, Sigma Chemical Co., St. Louis, MO, United States), 30 min after intravenous injection of NAG or NDX1 or NDX2 or the vehicle (saline). Two doses (200 mg/kg body weight and 300 mg/kg body weight) were tested for NAG, NDX1 and NDX2. Animals without any treatment were used to obtain the baseline data. Six hours after LPS treatment, inflammation assays were performed as described below. A total of 40 animals were randomly divided into 5 groups (8 mice/group): non-treatment (NT); 10 mg/Kg LPS plus saline (LPS); 10 mg/Kg LPS plus NAG (LPS+NAG); 10 mg/Kg LPS plus NDX1 (LPS+NDX1); and 10 mg/Kg LPS plus NDX2 (LPS+NDX2). The experiment was duplicated.
(§5) TNFa and IL-6 concentrations in the serum were determined using enzyme-linked immunosorbent assay (ELISA) according to the manufacturer's instructions. […] The resultant solutions were read at 450 nm on a microplate reader.

The subject of another data set is TNFa. In words: Serum TNFa ELISA in LPS-induced systemic inflammation in mice. Format: in vivo, mouse. To be noted: LPS 10 mg/kg I.P., compound 300 mg/kg I.V. As for the experimental part: as §3, §4, §5

The structures appear in SMILES notation.

`CC(=O)N[C@H]1C(O)O[C@H](CO)[C@@H](O)[C@@H]1O` (some centres unmarked) [NAG, N-acetyl glucosamine]: in data set [1], the “effect on cell growth / toxicity (WST-1)” value was “could prevent inhibition of cell proliferation induced by IL-1β”. The “rank order for inhibition of iNOS expression (western blot)” value in the data set on mouse iNOS is on record as “NDX1>NDX2>NAG”. Further, the “rank order for inhibition of Cox-2 expression (western blot)” value with Cox-2 was “NAG>NDX2>NDX1”. In addition, the “decrease of serum level of IL-6” value in the data set on IL-6 is “significantly decrease serum levels”. The “decrease of serum level of TNFa” value in the data set with TNFa is recorded as “significantly decrease serum levels”.
